Measured values reported in BigSolDB 2.1.

Cc1ccccc1S(N)(=O)=O
solubility (mole fraction)
Conditions | 283.15 K | 288.15 K | 293.15 K | 298.15 K | 303.15 K | 308.15 K | 313.15 K | 318.15 K
in acetonitrile | 0.0337 | 0.0375 | 0.0423 | 0.0475 | 0.0534 | 0.0597 | 0.0669 | 0.0737
in ethanol | 0.0242 | 0.0266 | 0.0293 | 0.0321 | 0.035 | 0.0384 | 0.042 | 0.0456
in ethyl acetate | 0.0497 | 0.053 | 0.0566 | 0.0604 | 0.0644 | 0.0687 | 0.0729 | 0.0775
in isopropanol | 0.0198 | 0.022 | 0.0246 | 0.0276 | 0.0305 | 0.0337 | 0.0374 | 0.0414
in methanol | 0.0277 | 0.0305 | 0.0341 | 0.0378 | 0.0425 | 0.0473 | 0.0526 | 0.0579
in n-butanol | 0.0209 | 0.0232 | 0.0257 | 0.0286 | 0.0316 | 0.0348 | 0.0382 | 0.0421
in n-propanol | 0.0226 | 0.0249 | 0.0274 | 0.0301 | 0.0331 | 0.0361 | 0.0394 | 0.0427

Cc1ccc(S(N)(=O)=O)cc1
solubility (mole fraction)
Conditions | 283.15 K | 288.15 K | 293.15 K | 298.15 K | 303.15 K | 308.15 K | 313.15 K | 318.15 K
in acetonitrile | 0.078 | 0.0848 | 0.0955 | 0.106 | 0.118 | 0.13 | 0.143 | 0.159
in ethanol | 0.0344 | 0.0392 | 0.0448 | 0.0524 | 0.0608 | 0.0701 | 0.0801 | 0.0914
in ethyl acetate | 0.0728 | 0.0786 | 0.0859 | 0.0946 | 0.104 | 0.114 | 0.123 | 0.133
in isopropanol | 0.0203 | 0.0232 | 0.0267 | 0.0306 | 0.0347 | 0.0392 | 0.0445 | 0.0509
in methanol | 0.0441 | 0.0505 | 0.0569 | 0.0648 | 0.073 | 0.0827 | 0.0932 | 0.104
in n-butanol | 0.0242 | 0.028 | 0.0316 | 0.0358 | 0.0403 | 0.0452 | 0.0501 | 0.0565
in n-propanol | 0.0272 | 0.0313 | 0.0358 | 0.0415 | 0.047 | 0.0542 | 0.0611 | 0.0689
